Test results: patent publication US12552770B2, “Compounds for treating respiratory disease” (TMEM16A Limited, priority 2020, dated 2026)

Target: T1, human TMEM16A (TMEM16Aabc variant) (Homo sapiens, UniProt Q5XXA6, DEL476-501)
T1 sequence (Q5XXA6 with tags, fused parts or gaps isoform Q5XXA6-5 DEL539-564): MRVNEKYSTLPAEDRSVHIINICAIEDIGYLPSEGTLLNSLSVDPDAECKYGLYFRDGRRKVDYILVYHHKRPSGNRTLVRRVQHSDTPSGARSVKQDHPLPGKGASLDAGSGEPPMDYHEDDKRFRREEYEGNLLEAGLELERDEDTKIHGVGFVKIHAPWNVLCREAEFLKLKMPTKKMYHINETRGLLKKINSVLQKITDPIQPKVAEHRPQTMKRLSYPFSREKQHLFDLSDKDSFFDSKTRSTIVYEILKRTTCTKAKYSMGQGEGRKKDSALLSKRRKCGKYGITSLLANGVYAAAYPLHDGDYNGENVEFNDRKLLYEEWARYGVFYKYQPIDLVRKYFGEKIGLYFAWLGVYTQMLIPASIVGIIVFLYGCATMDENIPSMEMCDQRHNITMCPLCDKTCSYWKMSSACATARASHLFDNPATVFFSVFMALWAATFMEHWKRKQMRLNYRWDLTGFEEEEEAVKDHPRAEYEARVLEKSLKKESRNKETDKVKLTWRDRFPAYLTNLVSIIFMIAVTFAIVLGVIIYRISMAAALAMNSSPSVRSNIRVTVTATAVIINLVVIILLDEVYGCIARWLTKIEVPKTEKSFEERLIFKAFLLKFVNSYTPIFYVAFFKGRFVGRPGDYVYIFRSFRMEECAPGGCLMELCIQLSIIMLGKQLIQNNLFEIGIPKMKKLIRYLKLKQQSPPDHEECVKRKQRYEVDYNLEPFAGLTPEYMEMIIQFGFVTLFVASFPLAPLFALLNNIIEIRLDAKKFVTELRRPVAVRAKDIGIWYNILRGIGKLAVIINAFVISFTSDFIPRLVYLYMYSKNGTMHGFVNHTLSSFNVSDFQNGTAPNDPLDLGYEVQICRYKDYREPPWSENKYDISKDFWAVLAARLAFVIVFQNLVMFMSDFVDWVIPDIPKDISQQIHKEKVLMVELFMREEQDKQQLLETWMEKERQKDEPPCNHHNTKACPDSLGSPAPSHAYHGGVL
Test: Automated whole-cell patch clamp (Qpatch) TMEM16A potentiator assay in recombinant cells
Format: cell-based
Conditions: FRT cells stably expressing human TMEM16A, intracellular calcium at EC20; for % Potentiation @ 3.33 μM Avg: 3.33 μM solution of test compound, percentage increase of baseline TMEM16A current, peak current at +70 mV; for EC50: calculated from cumulative concentration response curve, whole-cell patch clamp
Protocol: Automated Whole-Cell Patch Clamp Assay to Detect TMEM16A Activity in Recombinant Cells
Cell Culture and Preparation
Fisher rat thyroid (FRT) cells stably expressing human TMEM16A (TMEM16Aabc variant; Dr Luis Galietta, Insituto Giannina, Italy) were cultured in T-75 flasks in Hams F-12 media with Coon's modification (Sigma) supplemented with 10% (v/v) foetal bovine serum, penicillin-streptomycin (10,000 U/mL/10000 μg/mL), G-418 (750 μg/mL), L-glutamine (2 mM) and sodium bicarbonate solution (7.5% v/v). At ˜90% confluence cells were harvested for experiments by detachment with a 2:1 (v/v) mixture of Detachin (BMS Biotechnology) and 0.25% (w/v) trypsin-EDTA. Cells were diluted to a density of 3.5-4.5×10^6 cells/mL with media consisting of CHO-S-SFM II (Sigma), 25 mM HEPES (Sigma) and Soy bean trypsin inhibitor (Sigma).
Whole-Cell Patch Clamp Recording
FRT-TMEM16A cells were whole-cell patch clamped using an automated planar patch clamp system (Qpatch, Sophion). Briefly, once high resistance (GOhm) seals were established between the cells and the planar recording array the patch was ruptured using suction pulses to establish the whole-cell recording configuration of the patch clamp technique. The assay employed the following solutions (all reagents Sigma):
Intracellular solution (mM): N-methyl-D-glucamine 130, CaCl2 18.2, MgCl2 1, HEPES 10, EGTA 10, BAPTA 20, Mg-ATP 2, pH 7.25, 325 mOsm with sucrose.
Extracellular solution (mM): N-methyl-D-glucamine 130, CaCl2 2, MgCl2 1, HEPES 10, pH 7.3, 320 mOsm with sucrose.
The intracellular solution buffers intracellular calcium at levels required to give ˜20% activation of the maximal TMEM16A mediated current (EC20 for calcium ions). Cells were voltage clamped at a holding potential of −70 mV and a combined voltage step (to +70 mV)/ramp (−90 my to +90 mV) was applied at 0.05 Hz. After a period of current stabilisation test compounds, solubilised in 100% (v/v) DMSO and subsequently diluted into extracellular solution, were applied to generate a cumulative concentration response curve. Each concentration of test compound was incubated for 5 minutes before addition of the next concentration. After the final concentration was tested a supramaximal concentration of either a known active positive modulator or the TMEM16A inhibitor, CaCCinhA01 (Del La Fuente et al, 2008) was added to define the upper and lower limits of the assay.
Compound activity was quantified by measuring the increase in current upon compound addition and expressing this as a percentage increase of baseline TMEM16A current level. Percentage increases in current were determined for each concentration and the data plotted as a function of concentration using either the Qpatch software or Graphpad Prism v6.05 providing the concentration which gave 50% of its maximal effect (EC50) and maximum efficacy (percentage of baseline increase).
In FIG. 1, IBL equals baseline current, I[#1] equals the peak current during test compound concentration 1 incubation period and so on.
Peak TMEM16A current at +70 mV was plotted as a function of time over the assay period. Baseline current (IBL) was measured after a period of stabilisation. The increase in current for each compound addition was determined by taking the peak current during the incubation period and subtracting the current from the previous recording period and then expressing this as a percentage of the baseline current. For test compound concentration 1 in FIG. 1 this is:
For each additional concentration tested the increase in current was determined by subtracting the current from the previous incubation period and normalising the baseline value—for test concentration 2 in FIG. 1 this is:
The values for each test concentration were plotted as a cumulative function of concentration e.g. for test concentration two this would be the sum of the peak changes measured during concentration one plus concentration two.

SMILES	% Potentiation @ 3.33 μM Avg	EC50
O=C(CC1C2CC3CC(C2)CC1C3)Nc1ccc2[nH]c(OC3CCOC3)nc2c1 (centres unmarked) [Example 9, 2-(2-Adamantyl)-N-(2-tetrahydrofuran-3-yloxy-1H-benzimidazol-5-yl)acetamide]	87.4%	0.841 µM
O=C(NCC1CCCCCC1)c1ccc2oc(Cc3ccccc3O)nc2c1 [Example 10, N-(Cycloheptylmethyl)-2-[(2-hydroxyphenyl)methyl]-1,3-benzoxazole-5-carboxamide]	67.7%	0.122 µM
Nc1c2ccc(NC(=O)CC34CC5CC(CC(C5)C3)C4)cc2nn1Cc1ccccc1O [Example 11, 2-(1-Adamantyl)-N-[3-amino-2-[(2-hydroxyphenyl)methyl]indazol-6-yl]acetamide]	122.7%	0.098 µM
CC(C)c1nc2cc(NC(=O)CC3CCCCC3)ccc2o1 [Example 12, 2-Cyclohexyl-N-(2-isopropyl-1,3-benzoxazol-5-yl)acetamide]	44.6%	3.34 µM
O=C(NCC1CCCCCC1)c1ccc2cn(Cc3ccccc3O)nc2c1 [Example 13, N-(Cycloheptylmethyl)-2-[(2-hydroxyphenyl)methyl]indazole-6-carboxamide]	96.6%	0.198 µM
O=C(CC12CC3CC(CC(C3)C1)C2)Nc1cc2nc(Cc3ccccc3)[nH]c2cn1 [Example 14, 2-(1-Adamantyl)-N-(2-benzyl-3H-imidazo[4,5-c]pyridin-6-yl)acetamide]	59.4%	–
O=C(NCC1CCCCCC1)c1ccn2cc(Cc3ccccc3)nc2c1 [Example 15, 2-Benzyl-N-(cycloheptylmethyl)imidazo[1,2-a]pyridine-7-carboxamide]	58.6%	1.06 µM
O=C(CC12CC3CC(CC(C3)C1)C2)Nc1ccc2cn(Cc3ccccc3)nc2c1 [Example 16, 2-(1-Adamantyl)-N-(2-benzylindazol-6-yl)acetamide]	137.3%	0.502 µM
Cc1c2ccc(NC(=O)CC34CC5CC(CC(C5)C3)C4)cc2nn1Cc1ccccc1 [Example 17, 2-(1-Adamantyl)-N-(2-benzyl-3-methyl-indazol-6-yl)acetamide]	118.3%	0.918 µM
CC(C)(C)c1nc2cc(NC(=O)Cc3cc(Cl)ccc3O)ccc2[nH]1 [Example 18, N-(2-tert-Butyl-1H-benzimidazol-5-yl)-2-(5-chloro-2-hydroxy-phenyl)acetamide]	95.9%	0.156 µM
CC(C)(CNC(=O)OC(C)(C)C)CNC(=O)c1ccc2[nH]c(Cc3ccccc3)nc2c1 [Example 19, tert-Butyl N-[3-[(2-benzyl-1H-benzimidazole-5-carbonyl)amino]-2,2-dimethyl-propyl]carbamate]	181.6%	0.936 µM
CC(C)(C)c1nc2ccc(C(=O)NCC3CCCCCC3)cc2[nH]1 [Example 20, 2-tert-Butyl-N-(cycloheptylmethyl)-3H-benzimidazole-5-carboxamide]	85.9%	0.776 µM
CC(C)(C)c1cc(F)c(Cc2nc3cc(C(=O)NC4(C(F)(F)F)CC4)ccc3[nH]2)cc1O [Example 21, 2-[(4-tert-Butyl-2-fluoro-5-hydroxy-phenyl)methyl]-N-[1-(trifluoromethyl)cyclopropyl]-1H-benzimidazole-5-carboxamide]	262%	0.099 µM
CC(C)(C)c1cc(F)c(Cc2nc3cc(C(=O)NCC4(C(F)(F)F)CC4)ccc3[nH]2)cc1O [Example 21.1, 2-[(4-tert-Butyl-2-fluoro-5-hydroxy-phenyl)methyl]-N-[[1-(trifluoromethyl)cyclopropyl]methyl]-1H-benzimidazole-5-carboxamide]	275%	0.227 µM
CC(C)(C)c1cc(F)c(Cc2nc3cc(C(=O)NCCC(F)(F)F)ccc3[nH]2)cc1O [Example 21.2, 2-[(4-tert-Butyl-2-fluoro-5-hydroxy-phenyl)methyl]-N-(3,3,3-trifluoropropyl)-1H-benzimidazole-5-carboxamide]	272%	0.15 µM
CC(C)(O)c1cc(F)c(CC(=O)Nc2ccc3[nH]c(C4(C(F)(F)F)CC4)nc3c2)cc1O [Example 22, 2-[2-Fluoro-5-hydroxy-4-(1-hydroxy-1-methyl-ethyl)phenyl]-N-[2-[1-(trifluoromethyl)cyclopropyl]-1H-benzimidazol-5-yl]acetamide]	149%	0.168 µM
CC(C)(C)c1cc(F)c(CC(=O)Nc2ccc3[nH]c(C4(C(F)(F)F)CC4)nc3c2)cc1O [Example 23, 2-(4-tert-Butyl-2-fluoro-5-hydroxy-phenyl)-N-[2-[1-(trifluoromethyl)cyclopropyl]-1H-benzimidazol-5-yl]acetamide]	153%	0.052 µM
O=C(NCCC(F)(F)F)c1ccc2[nH]c(Cc3ccccc3)nc2c1 [Example 24, 2-Benzyl-N-(3,3,3-trifluoropropyl)-1H-benzimidazole-5-carboxamide]	69%	1.1 µM
O=C(NCC1CCCC1)c1ccc2[nH]c(Cc3ccccc3)nc2c1 [Example 24.1, 2-Benzyl-N-(cyclopentylmethyl)-1H-benzimidazole-5-carboxamide]	106%	0.176 µM
O=C(NCC1CCCCCC1)c1ccc2[nH]c(Cc3ccccc3)nc2c1 [Example 24.2, 2-Benzyl-N-(cycloheptylmethyl)-1H-benzimidazole-5-carboxamide]	137%	0.12 µM
O=C(NCC1CCCCCC1)c1ccc2[nH]c(Cc3c(O)cccc3F)nc2c1 [Example 25, N-(Cycloheptylmethyl)-2-[(2-fluoro-6-hydroxy-phenyl)methyl]-1H-benzimidazole-5-carboxamide]	57%	0.036 µM
